Measured values as given in ChEMBL document CHEMBL5576088, “Skin- and airway-deliverable TRPA1 inhibitor” (Bioorg Med Chem, 2024).
Each block holds one compound with its values, some of them ahead of it. The source made the active and inactive calls. No cut-off for these calls is given here.

Columns and labels:
[1] = target: T1, Transient receptor potential cation channel subfamily A member 1 (Homo sapiens, UniProt O75762); assay: Antagonist activity at human TRPA1 expressed in HEK293T cells assessed as inhibition of AITC-induced current by whole cell patch clamp analysis; format: cell-based
[2] = target: T1, Transient receptor potential cation channel subfamily A member 1; assay: Antagonist activity at wildtype human TRPA1 expressed in HEK293 cells assessed as inhibition of AITC-induced intracellular Ca2+ flux at 100 uM in presence of 5 uM AITC by Fluo4-AM dye based fluorescence analysis; format: cell-based; conditions: filed as antagonist
[3] = target: T1, Transient receptor potential cation channel subfamily A member 1; assay: Antagonist activity at human TRPA1 expressed in HEK293 cells assessed as inhibition of AITC-induced intracellular Ca2+ flux in presence of 5 uM AITC by Fluo4-AM dye based fluorescence analysis; format: cell-based
[4] = target: T1, Transient receptor potential cation channel subfamily A member 1; assay: Antagonist activity at full length human TRPA1 expressed in HEK293 cells assessed as inhibition of AITC-induced intracellular Ca2+ flux in presence of 10 uM AITC by Fluo4-AM dye based fluorescence analysis; format: cell-based
Homo sapiens = assay: Inhibition of methylparaben/phenoxyethanol-induced sensory irritation in human at 0.2% applied topically and measured for 8 mins; format: functional, organism-based; conditions: route top

T1 sequence (O75762 whole entry): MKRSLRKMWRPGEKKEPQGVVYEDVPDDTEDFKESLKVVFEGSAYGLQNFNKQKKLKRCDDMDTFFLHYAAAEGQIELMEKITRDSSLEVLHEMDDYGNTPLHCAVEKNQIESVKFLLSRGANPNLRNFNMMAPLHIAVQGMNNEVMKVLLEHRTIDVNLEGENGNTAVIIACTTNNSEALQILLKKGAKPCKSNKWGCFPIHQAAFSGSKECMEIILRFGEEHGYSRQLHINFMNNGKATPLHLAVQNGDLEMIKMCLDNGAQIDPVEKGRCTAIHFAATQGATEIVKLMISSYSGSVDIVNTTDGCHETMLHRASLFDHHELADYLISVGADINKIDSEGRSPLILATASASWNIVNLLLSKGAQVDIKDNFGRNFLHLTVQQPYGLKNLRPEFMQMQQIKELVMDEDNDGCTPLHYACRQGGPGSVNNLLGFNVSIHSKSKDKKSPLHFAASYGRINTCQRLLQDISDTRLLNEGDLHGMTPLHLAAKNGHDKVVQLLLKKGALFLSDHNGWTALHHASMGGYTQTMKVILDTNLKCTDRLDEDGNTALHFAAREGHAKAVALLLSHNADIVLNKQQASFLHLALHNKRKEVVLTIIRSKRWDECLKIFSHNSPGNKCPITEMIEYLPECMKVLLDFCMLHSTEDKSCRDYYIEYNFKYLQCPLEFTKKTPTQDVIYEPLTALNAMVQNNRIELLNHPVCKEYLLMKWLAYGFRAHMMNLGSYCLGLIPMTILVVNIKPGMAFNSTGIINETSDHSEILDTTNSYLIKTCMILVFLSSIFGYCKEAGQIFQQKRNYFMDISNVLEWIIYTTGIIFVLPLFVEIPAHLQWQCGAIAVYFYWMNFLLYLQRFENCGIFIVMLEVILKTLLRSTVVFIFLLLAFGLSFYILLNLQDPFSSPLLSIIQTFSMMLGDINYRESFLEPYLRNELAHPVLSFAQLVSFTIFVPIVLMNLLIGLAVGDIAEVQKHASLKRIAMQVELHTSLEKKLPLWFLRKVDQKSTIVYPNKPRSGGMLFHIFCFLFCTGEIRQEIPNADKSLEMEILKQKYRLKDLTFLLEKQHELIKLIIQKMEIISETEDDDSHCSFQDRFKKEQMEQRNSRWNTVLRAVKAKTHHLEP

IC50 [3]: 17 µM
Structure (SMILES): CC(CO)C(C)Cc1ccccc1 (mixture of isomers)

IC50 [3]: 19.8 µM
Structure (SMILES): CC(CCO)CC(C)c1ccccc1 (mixture of isomers)

IC50 [3]: 32.1 µM
Structure (SMILES): C/C(=C\C(C)c1ccccc1)CO (racemic)

Second part, the compound before the results:

Structure (SMILES): CC1(C)[C@@H]2CC[C@@]1(C)[C@](C)(O)C2
IC50 [1]: 120 µM

Structure (SMILES): CC(C)c1ccc(NC(=O)Cn2cnc3c2c(=O)n(C)c(=O)n3C)cc1
Activity [2]: Active

Structure (SMILES): CCC(O)C(C)Cc1ccccc1 (mixture of isomers)
IC50 [3]: 21.8 µM

Structure (SMILES): CC1(C)C2CCC1(C)C(O)C2 (racemic) [BORNEOL]
IC50 [4]: 529 µM
inhibition (Homo sapiens): inactive

Structure (SMILES): CC(=C\c1ccc(Cl)cc1)/C(C)=N/O [AP18 5]
IC50 [4]: 1.72 µM
Activity [2]: Active
